In patent US6987184B2, “Isothiazoloanthrones, isoxazoloanthrones, isoindolanthrones and derivatives thereof as JNK inhibitors and compositions and methods related” (Signal Pharmaceuticals, LLC, priority 2001, dated 2006):

Experiments:
[1] = test system: rat ventral mesencephalan neurons; experiment: [3H]Dopamine cell culture assay (6-OHDA neurotoxicity); type: cell-based; conditions: approximately 3×10^−6 M compound; 6-OHDA 30 μM; uptake 22 hrs after exposure; FIG. 1
Procedure: Cultures of dopaminergic neurons were prepared according to a modification of the procedure described by Raymon and Leslie (J. Neurochem. 62, 1015-1024, 1994). Time-mated pregnant rats were sacrificed on embyronic day 14-15 (crown rump length 11-12 mm) and the embryos removed by cesarean section. The ventral mesencephalon, containing the dopaminergic neurons, was dissected from each embryo. Tissue pieces from approximately 48 embryos were pooled and dissociated both enzymatically and mechanically. An aliquot from the resulting cell suspension was counted and the cells were plated in high glucose DMEM/F12 culture medium with 10% fetal bovine serum at a density of 1×10^5 cells/well of a Biocoat poly-D-lysine-coated 96-well plate. The day following plating was considered 1 day in vitro (DIV). Cells were maintained in a stable environment at 37° C., 95% humidity, and 5% CO2. A partial medium change was performed at 3 DIV. […]
[^3H]Dopamine uptake is used as a measure of the health and integrity of dopaminergic neurons in culture (Prochiantz et al., PNAS 76: 5387-5391, 1979). […] Briefly, cells treated with 6-OHDA in the presence and absence of Compound CC were assessed in the uptake assay 22 hrs after exposure to 6-OHDA. […] Radioactivity was removed and the cultures were washed 3× with ice cold PBS. […]

[2] = Brain-blood plasma distribution in vivo; design: species or system Sprague-Dawley rats; conditions: rat, 10 mg/kg intravenously, 2 hr post-dose
Procedure: Compound CC was administered intravenously (10 mg/kg) into the veins of Sprague-Dawley rats. After 2 hr, blood samples were obtained from the animals and their vascular systems were perfused with approximately 100 mL of saline to rid their brains of blood. The brains were removed from the animals, weighed, and homogenized in a 50 mL conical tube containing 10 equivalents (w/v) of methanol/saline (1:1) using a Tissue Tearer (Fischer Scientific). The homogenized material was extracted by adding 600 μL of cold methanol to 250 μL of brain homogenate vortexed for 30 sec and subjected to centrifugation for 5 min. After centrifugation, 600 μL of the resulting supernatant was transferred to a clean tube and evaporated at room temperature under reduced pressure to provide a pellet. […] The brain homogenate analysis samples, plasma analysis samples, and standard analysis samples were analyzed and compared using HPLC by injecting 100 μL of a sample onto a 5 μm C-18 Luna column (4.6 mm×150 mm, commercially available from Phenomenex of Torrance, Calif.) and eluting at 1 mL/min with a linear gradient of 30% aqueous acetonitrile containing 0.1% trifluoroacetic acid to 90% aqueous acetonitrile containing 0.1% trifluoroacetic acid over 8 minutes and holding at 90% aqueous acetonitrile containing 0.1% trifluoroacetic acid for 3 min. with absorbance detection at 450 nm. […]

[3] = Solubility in aqueous media; type: physicochemical

Nc1ccc2snc3c2c1C(=O)c1ccccc1-3 [Compound CC]
protection of neurons from 6-OHDA, by [3H]dopamine uptake [1]: protects rat ventral mesencephalan neurons from the toxic effects of 6-OHDA
brain-drug concentration [2]: approximately 65 nmole/g
solubility in aqueous media [3]: limited solubility
